Entries after “also recorded” stand apart in the source; their conditions may differ.
How the values were obtained:
pKa of the dithiol = assay type: physicochemical
From the text: (§1) The following is taken from Lamoureux and Whitesides, 58 J. Org. Chem. 633, 1993, hereby incorporated by reference herein. The general methodology and equations used for analysis are presented there, and are not repeated here.

[1] = stability of aqueous solution of the dithiol; assay type: physicochemical; details: over several days, protected from atmospheric oxygen
[2] = thiol/disulfide equilibrium (reduction strength) relative to oxidized mercaptoethanol
From the text: In addition to a fast rate of reduction, a useful dithiol should be strongly reducing in order to reduce disulfides quantitatively and to maintain thiols in the reduced state without the inconvenience of mixed disulfides. […] We have used this equilibrium to evaluate several dithiols in terms of their reduction strength.
as §1

[3] = cited from earlier work; for reducing strength: reduction of a disulfide bond

| pKa (pKa of the dithiol) | signs of decomposition of aqueous solution [1] | Structure (SMILES) | equilibrium constant relative to oxidized mercaptoethanol [2] | rate of reduction (in words) ([3]; background statement, pH not given) | reducing strength ([3]; background statement) | rate of reduction (in words), pH=7 ([3]; pH=7, background statement) |
| --- | --- | --- | --- | --- | --- | --- |
| ~7.9 | no signs of decomposition | O=S(=O)(CCS)CCS [bis(2-mercaptoethyl) sulfone, Bis(2-mercaptoethyl) sulfone] | about 63 |  |  |  |
|  |  | OCCS [Mercaptoethanol] |  | slow | weak |  |
|  |  | O[C@H](CS)[C@H](O)CS (racemic) [DTT, Dithiothreitol] |  |  | strong reductant; also recorded: one of the most strongly reducing dithiols | kinetically slow |

From patent publication US5460806A, “Bis(2-mercaptoethyl) sulfone” (President and Fellows of Harvard College, priority 1993, dated 1995)
